The IC50 is the concentration that inhibits the measured activity by half.

For the first assay, the target named is T1, Recombinant human calpain I (Homo sapiens, UniProt P07384).
T1 construct: made in house
T1 sequence (P07384 1-714): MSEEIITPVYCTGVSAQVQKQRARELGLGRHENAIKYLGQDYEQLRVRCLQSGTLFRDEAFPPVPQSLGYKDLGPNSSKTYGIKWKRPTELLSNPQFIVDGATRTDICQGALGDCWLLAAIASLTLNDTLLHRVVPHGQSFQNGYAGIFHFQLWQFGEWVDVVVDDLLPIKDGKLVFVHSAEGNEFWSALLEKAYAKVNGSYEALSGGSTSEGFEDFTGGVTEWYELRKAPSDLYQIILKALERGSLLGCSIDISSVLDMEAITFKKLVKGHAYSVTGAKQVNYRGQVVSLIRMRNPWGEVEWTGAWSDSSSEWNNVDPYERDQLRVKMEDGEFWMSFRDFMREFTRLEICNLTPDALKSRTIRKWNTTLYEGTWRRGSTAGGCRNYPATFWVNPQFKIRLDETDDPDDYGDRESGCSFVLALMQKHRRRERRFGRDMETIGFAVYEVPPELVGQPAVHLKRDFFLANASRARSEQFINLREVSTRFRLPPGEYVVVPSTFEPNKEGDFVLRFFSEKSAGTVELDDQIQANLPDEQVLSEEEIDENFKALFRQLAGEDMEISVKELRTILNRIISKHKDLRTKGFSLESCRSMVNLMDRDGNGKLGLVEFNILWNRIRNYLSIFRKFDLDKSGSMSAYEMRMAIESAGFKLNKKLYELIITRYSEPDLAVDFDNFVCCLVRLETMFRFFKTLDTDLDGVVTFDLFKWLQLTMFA
T1 sequence (P04632 1-268 partner): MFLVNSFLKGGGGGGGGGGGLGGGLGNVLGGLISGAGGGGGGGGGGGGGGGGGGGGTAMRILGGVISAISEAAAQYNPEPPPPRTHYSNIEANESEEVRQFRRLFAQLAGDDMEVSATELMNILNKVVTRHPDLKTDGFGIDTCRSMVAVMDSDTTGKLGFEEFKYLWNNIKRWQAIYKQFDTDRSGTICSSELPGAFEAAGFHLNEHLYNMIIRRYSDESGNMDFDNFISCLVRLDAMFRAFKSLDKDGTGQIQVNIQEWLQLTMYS
The experiment in a line: Inhibition of cysteine protease activity: calpain I, Succ-Leu-Tyr-MNA substrate hydrolysis. In kind it is biochemical. As to conditions: Table 2, linear α-ketoamides. As for the experimental part: To evaluate inhibitory activity, stock solutions (40 times concentrated) of each compound to be tested were prepared in 100% anhydrous DMSO and 5 μl of each inhibitor preparation were aliquoted into each of three wells of a 96-well plate. Recombinant human calpain I, prepared by the method of Meyer et al. (Biochem. J. 1996, 314: 511–519; incorporated herein by reference in its entirety), was diluted into assay buffer (i.e., 50 mM Tris, 50 mM NaCl, 1 mM EDTA, 1 mM EGTA, and 5 mM β-mercaptoethanol, pH 7.5, including 0.2 mM Succ-Leu-Tyr-MNA), and 175 μl was aliquoted into the same wells containing the independent inhibitor stocks as well as to positive control wells containing 5 μl DMSO, but no compound. To start the reaction, 20 μl of 50 mM CaCl2 in assay buffer was added to all wells of the plate, excepting three, which were used as background signal baseline controls. Substrate hydrolysis was monitored every 5 minutes for a total of 30 minutes. Substrate hydrolysis in the absence of inhibitor was linear for up to 15 minutes.
Inhibition of calpain I activity was calculated as the percent decrease in the rate of substrate hydrolysis in the presence of inhibitor relative to the rate in its absence. Comparison between the inhibited and control rates was made within the linear range for substrate hydrolysis. The IC50s of inhibitors (concentration yielding 50% inhibition) were determined from the percent decrease in rates of substrate hydrolysis in the presence of five to seven different concentrations of the test compound. The results were plotted as percent inhibition versus log inhibitor concentration, and the IC50 was calculated by fitting the data to the four-parameter logistic equation shown below using the program GraphPad Prism (GraphPad Software, Inc., San Diego, Calif.). y=d+[(a−d)/(1+(x/c)^b)]
The parameters a, b, c, and d are defined as follows: a is % inhibition in the absence of inhibitor, b is the slope, c is the IC50, and d is the % inhibition at an infinite concentration of inhibitor.
`Cn1nc(-c2ccc(S(=O)(=O)NCCNC(=O)C(=O)C(Cc3ccccc3)NC(=O)C(COCc3ccccc3)NS(C)(=O)=O)s2)cc1C(F)(F)F` (mixture of isomers) [Compound 34]: the IC50 was 25 nM.

As to `CS(=O)(=O)NC(COCc1ccccc1)C(=O)NC(Cc1ccccc1)C(=O)C(=O)NCCNS(=O)(=O)c1ccc(-c2ccccc2)s1` (mixture of isomers) [Compound 42], the IC50 is 14 nM.

In the case of `CS(=O)(=O)NC(COCc1ccccc1)C(=O)NC(Cc1ccccc1)C(=O)C(=O)NCCNS(=O)(=O)c1ccc(-c2cccc(N)c2)s1` (mixture of isomers) [Compound 44], the IC50 came to 31 nM.

In the case of `CS(=O)(=O)N[C@H](COCc1ccccc1)C(=O)N[C@@H](Cc1ccccc1)C(=O)C(=O)NCCNS(=O)(=O)c1ccccc1` [Compound 9], the IC50 worked out at 16 nM.

On to `CC(C)C[C@H](NC(=O)OCc1ccccc1)C(=O)N[C@@H](Cc1ccccc1)C(=O)C(=O)NCCNS(=O)(=O)c1ccccc1` [Compound 17], for which the IC50 amounted to 11 nM.

On to `CS(=O)(=O)N[C@H](COCc1ccccc1)C(=O)N[C@@H](Cc1ccccc1)C(=O)C(=O)NCCNS(=O)(=O)c1ccc(N)cc1` [Compound 22], for which the IC50 was determined as 42 nM.

`CS(=O)(=O)N[C@H](COCc1ccccc1)C(=O)N[C@@H](Cc1ccccc1)C(=O)C(=O)NCCNS(=O)(=O)c1ccc(-c2ccccc2)s1` [Compound 29]: the IC50 came out at 14 nM.

`CS(=O)(=O)N[C@H](COCc1ccccc1)C(=O)N[C@@H](Cc1ccccc1)C(=O)C(=O)NCCNS(=O)(=O)c1cccnc1` [Compound 31]: the IC50 was determined as 29 nM.

For `CS(=O)(=O)N[C@H](COCc1ccccc1)C(=O)N[C@@H](Cc1ccccc1)C(=O)C(=O)NCCNS(=O)(=O)c1ccc(-c2ccon2)s1` [Compound 32], the IC50 stood at 10 nM.

For `CSc1nccc(-c2ccc(S(=O)(=O)NCCNC(=O)C(=O)[C@H](Cc3ccccc3)NC(=O)[C@@H](COCc3ccccc3)NS(C)(=O)=O)s2)n1` [Compound 33], the IC50 was 17 nM.

For the compound `CS(=O)(=O)NCCNC(=O)C(=O)[C@H](Cc1ccccc1)NC(=O)[C@@H](COCc1ccccc1)NS(C)(=O)=O` [Compound 35], the IC50 was determined as 91 nM.

In the case of `CS(=O)(=O)N[C@H](COCc1ccccc1)C(=O)N[C@@H](Cc1ccccc1)C(=O)C(=O)NCCNS(=O)(=O)c1ccc(S(=O)(=O)c2ccccc2)s1` [Compound 37], the IC50 was determined as 18 nM.

As to `CS(=O)(=O)N[C@H](COCc1ccccc1)C(=O)N[C@@H](Cc1ccccc1)C(=O)C(=O)NCCNS(=O)(=O)c1ccc(Br)s1` [Compound 39], the IC50 stood at 22 nM.

With `CS(=O)(=O)N[C@H](COCc1ccccc1)C(=O)N[C@@H](Cc1ccccc1)C(=O)C(=O)NCCNS(=O)(=O)c1ccc(-c2ccc(N)cc2)cc1` [Compound 40], the IC50 stood at 63 nM.

`CN(C)Cc1ccc(S(=O)(=O)NCCNC(=O)C(=O)[C@H](Cc2ccccc2)NC(=O)[C@@H](COCc2ccccc2)NS(C)(=O)=O)cc1` [Compound 45]: the 50% inhibitory concentration (IC50) was determined as 64 nM.

Take `CS(=O)(=O)N[C@H](COCc1ccccc1)C(=O)N[C@@H](Cc1ccccc1)C(=O)C(=O)NCCNS(=O)(=O)CCc1ccncc1` [Compound 46]: the IC50 came out at 144 nM.

Still in this assay, the particulars now being: Table 2; 10 μM compound; values in brackets marked **.
Regarding `O=C(NCCNS(=O)(=O)c1ccccc1)C(=O)[C@H](Cc1ccccc1)NC(=O)[C@@H]1CCCN1S(=O)(=O)c1ccccc1` [Compound 13], the “Percent inhibition @ 10 μM (Calpain)” value was “(78%)”.

For `O=C(NCCNS(=O)(=O)c1ccccc1)C(=O)[C@H](Cc1ccccc1)NC(=O)[C@H](Cc1ccccc1)NS(=O)(=O)c1ccccc1` [Compound 30], the “Percent inhibition @ 10 μM (Calpain)” value is “(97%)”.

The assay is the same for the next values; noted with them: Table 3, branched-chain α-ketoamides.
Consider `C[C@H](CNC(=O)C(=O)[C@H](Cc1ccccc1)NC(=O)[C@@H](COCc1ccccc1)NS(C)(=O)=O)NS(=O)(=O)c1ccccc1` [Compound 48], for which the IC50 is 43 nM.

In the case of `C[C@@H](CNS(=O)(=O)c1ccccc1)NC(=O)C(=O)[C@H](Cc1ccccc1)NC(=O)[C@@H](COCc1ccccc1)NS(C)(=O)=O` [Compound 49], the IC50 stood at 32 nM.

The assay is the same for the next values; noted with them: Table 3; concentration not given.
On to `CN(CCNC(=O)C(=O)[C@H](Cc1ccccc1)NC(=O)[C@@H](COCc1ccccc1)NS(C)(=O)=O)S(=O)(=O)c1ccccc1` [Compound 50], for which the “Calpain percent inhibition, value in brackets marked **” value was “(100%)”.

Staying with this assay, now noted: Table 4, α-ketoamides.
As to `CS(=O)(=O)NC(C(=O)NC(Cc1ccccc1)C(=O)C(=O)NCCNS(=O)(=O)c1ccc(-c2ccccn2)s1)c1ccccc1` (mixture of isomers) [Compound 68], the IC50 amounted to 21 nM.

Regarding `CS(=O)(=O)NC(C(=O)NC(Cc1ccccc1)C(=O)C(=O)NCCNS(=O)(=O)c1ccccc1)c1ccccc1` (mixture of isomers) [Compound 69], the IC50 was found to be 80 nM.

In the case of `CS(=O)(=O)NC(COCc1ccccc1)C(=O)NC(Cc1ccccc1)C(=O)C(=O)NCCNS(=O)(=O)c1ccc(-c2cccc(F)c2)s1` (mixture of isomers) [Compound 72], the IC50 stood at 18 nM.

For `CS(=O)(=O)NC(COCc1ccccc1)C(=O)NC(Cc1ccccc1)C(=O)C(=O)NCCNS(=O)(=O)c1ccc(-c2cccc([N+](=O)[O-])c2)s1` (mixture of isomers) [Compound 74], the 50% inhibitory concentration (IC50) came out at 15 nM.

As to `Cc1cccc(-c2ccc(S(=O)(=O)NCCNC(=O)C(=O)C(Cc3ccccc3)NC(=O)C(COCc3ccccc3)NS(C)(=O)=O)s2)c1` (mixture of isomers) [Compound 75], the IC50 worked out at 36 nM.

Take `CC(=O)Nc1cccc(-c2ccc(S(=O)(=O)NCCNC(=O)C(=O)C(Cc3ccccc3)NC(=O)C(COCc3ccccc3)NS(C)(=O)=O)s2)c1` (mixture of isomers) [Compound 76]: the IC50 is 11 nM.

Consider `CC(=O)c1cccc(-c2ccc(S(=O)(=O)NCCNC(=O)C(=O)C(Cc3ccccc3)NC(=O)C(COCc3ccccc3)NS(C)(=O)=O)s2)c1` (mixture of isomers) [Compound 77], for which the IC50 is 10 nM.

On to `CS(=O)(=O)NC(COCc1ccccc1)C(=O)NC(Cc1ccccc1)C(=O)C(=O)NC1CCN(S(=O)(=O)c2ccc(CN3CCOCC3)cc2)CC1` (mixture of isomers) [Compound 78], for which the IC50 is 48 nM.

In the case of `COc1ccc(-c2ccc(S(=O)(=O)NCCNC(=O)C(=O)C(Cc3ccccc3)NC(=O)C(COCc3ccccc3)NS(C)(=O)=O)s2)cc1` (mixture of isomers) [Compound 82], the IC50 is 13 nM.

In the case of `CS(=O)(=O)NC(COCc1ccccc1)C(=O)NC(Cc1ccccc1)C(=O)C(=O)NCCCCCNS(=O)(=O)c1ccc(-c2ccccn2)s1` (mixture of isomers) [Compound 92], the IC50 was found to be 12 nM.

Regarding `CS(=O)(=O)NC(COCc1ccccc1)C(=O)NC(Cc1ccccc1)C(=O)C(=O)NC1CCN(S(=O)(=O)c2ccc(-c3ccccn3)s2)CC1` (mixture of isomers) [Compound 107], the IC50 came to 23 nM.

For the compound `CS(=O)(=O)NC(COCc1ccccc1)C(=O)NC(Cc1ccccc1)C(=O)C(=O)NCCNS(=O)(=O)c1ccc(-c2cccc(C#N)c2)s1` (mixture of isomers) [Compound 110], the IC50 was determined as 11 nM.

Regarding `CS(=O)(=O)NC(COCc1ccccc1)C(=O)NC(Cc1ccccc1)C(=O)C(=O)NCCNS(=O)(=O)c1ccc(CN2CC=CC2)cc1` (mixture of isomers) [Compound 111], the IC50 worked out at 73 nM.

Regarding `CS(=O)(=O)N[C@H](COCc1ccccc1)C(=O)N[C@@H](Cc1ccccc1)C(=O)C(=O)NCCNS(=O)(=O)c1cccc(-c2csc(N)n2)c1` [Compound 51], the IC50 stood at 29 nM.

These data come from patent US7001907B2, “Peptide-containing α-ketoamide cysteine and serine protease inhibitors” (Cephaon, Inc., priority 1997, dated 2006).
